Measurements as given in patent US8048883B2, “Polymorphic form of imatinib mesylate and a process for its preparation” (Natco Pharma Limited, priority 2004, dated 2011).
Entries after “also recorded” stand apart in the source; their conditions may differ. Like-named read-outs stand apart in the source and are kept apart here.

What was measured:
Format in all cases: physicochemical
[1] = Flow properties / suitability for solid dosage forms
[2] = Heat stability of α2-crystal form, examined by XRPD; conditions: for Polymorph form detected after heating: XRPD
From the text: Pure α2-crystal polymorph 1 gm prepared by the process described in Example 1 was taken in a boiling test tube and heated gradually in oil bath the substance was examined by XRPD. The results are tabulated below

[3] = Hygroscopicity
[4] = Stability of α2 form under accelerated stress conditions in bulk and formulated capsule, XRPD
[5] = Stability of the polymorphic form (metastable or stable); conditions: room temperature and higher temperatures up to 120° C.
[6] = Comparative dissolution of Imatinib mesylate capsules 100 mg (α2 and β-forms)
[7] = 0 Month at 40 ± 2° C./75 ± 5% RH
[8] = 1 Month at 40 ± 2° C./75 ± 5% RH
[9] = 2 Months at 40 ± 2° C./75 ± 5% RH
[10] = 3 Months at 40 ± 2° C./75 ± 5% RH
[11] = 6 Months at 40 ± 2° C./75 ± 5% RH

- Flow properties of the formulations, α2 form compared with β-form ([1]; same excipient composition): comparable
- Flow properties ([1]; suitability for pharmaceutical solid dosage forms): Found to be well suited for
- Polymorph form detected after heating ([2]; 110° C., 2 hours): α2 form
- Polymorph form detected after heating ([2]; 110° C., 4 hours): α2 form
- Polymorph form detected after heating ([2]; 120° C., 2 hours): α2 form
- Polymorph form detected after heating ([2]; 120° C., 4 hours): α2 form
- Polymorph form detected after heating ([2]; 120° C., 6 hours): α2 form
- Hygroscopicity [3]: Non-hygroscopic
- Polymorph content of bulk imatinib mesylate, polymorph form detected [4, 7]: α2 form
- Polymorph content of imatinib mesylate in formulated capsule, polymorph form detected [4, 7]: α2 form
- Polymorph content of bulk imatinib mesylate, polymorph form detected [4, 8]: α2 form
- Polymorph content of imatinib mesylate in formulated capsule, polymorph form detected [4, 8]: α2 form
- Polymorph content of bulk imatinib mesylate, polymorph form detected [4, 9]: α2 form
- Polymorph content of imatinib mesylate in formulated capsule, polymorph form detected [4, 9]: α2 form
- Polymorph content of bulk imatinib mesylate, polymorph form detected [4, 10]: α2 form
- Polymorph content of imatinib mesylate in formulated capsule, polymorph form detected [4, 10]: α2 form
- Polymorph content of bulk imatinib mesylate, polymorph form detected [4, 11]: α2 form
- Polymorph content of imatinib mesylate in formulated capsule, polymorph form detected [4, 11]: α2 form
- Conversion to β-polymorphic form in capsule ([4]; about 40° C. and about 75% relative humidity for 6 months): does not show any significant conversion
- Conversion over time to form β ([4]; bulk form or dosage form, about 40° and about 75% relative humidity, at least about 6 months): does not substantially convert
- Stability at normal and accelerated stress conditions ([4]; in bulk and formulated capsule form): stable
- Stability ([5]; listed as α2): stable
- Stability ([5]; listed as α2-form): stable
- Dissolution of the capsule formulation compared with the β-form formulation [6]: better dissolution characteristics
- Dissolution in capsule formulation ([6]; during 30 min): Dissolution of more than 95%
- Dissolution of the capsule formulation compared with the β-form formulation ([6]; listed as α2-form): comparable and even better
SMILES: Cc1ccc(NC(=O)c2ccc(CN3CCN(C)CC3)cc2)cc1Nc1nccc(-c2cccnc2)n1 [α2 form, N-{5-[4-(4-methylpiperazino-methyl)-benzoylamido]-2-methylphenyl}-4-(3-pyridyl) 2-pyrimidine-amine]
- Heat stability ([2]; 120° C. for 6 hours): non-metastable and stable; also recorded: fairly stable to heat
